Test results: US10934298B2, “Substituted pyrazolo[1,5-a]pyrimidines for the treatment of medical disorders” (BIAL—BioTech Investments, Inc., priority 2016, dated 2021)

Target: T1, glucocerebrosidase (Gcase) (Homo sapiens, UniProt P04062)
T1 construct: micellar solution containing 10 nM GCase and 100 nM saposin C
T1 sequence (P04062 40-536): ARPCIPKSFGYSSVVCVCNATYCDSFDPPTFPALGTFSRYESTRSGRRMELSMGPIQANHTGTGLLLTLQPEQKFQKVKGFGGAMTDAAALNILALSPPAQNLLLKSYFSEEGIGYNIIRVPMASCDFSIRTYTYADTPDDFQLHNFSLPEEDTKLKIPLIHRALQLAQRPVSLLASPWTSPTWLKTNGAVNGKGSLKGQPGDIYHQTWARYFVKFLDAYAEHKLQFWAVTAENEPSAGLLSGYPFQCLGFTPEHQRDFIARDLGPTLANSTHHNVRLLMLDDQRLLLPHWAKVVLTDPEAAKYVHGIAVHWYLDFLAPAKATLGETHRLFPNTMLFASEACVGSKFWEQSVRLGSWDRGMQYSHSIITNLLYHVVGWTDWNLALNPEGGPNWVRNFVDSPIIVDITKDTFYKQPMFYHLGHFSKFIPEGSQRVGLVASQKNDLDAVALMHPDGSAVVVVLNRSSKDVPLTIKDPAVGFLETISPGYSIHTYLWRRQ
Test: Glucocerebrosidase (Gcase) activation assay with 4-methylumbelliferyl-beta-D-glucopyranoside substrate, saposin C and phosphatidylserine/triton micelles, fluorescence readout
Assay type: biochemical
Summary of the method: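 10 nM GCase with 100 nM saposin C pre-incubated 30 min with compound in pH 4.7 phosphate/citrate PS/triton micelles, then mixed 1:1 with 2 mM 4-methylumbelliferyl-β-glucoside micellar substrate (stock level). Run 15 min at room temperature, stopped at pH 12.5; fluorescence 365/440 nm. Screened at 1.0 and 0.1 μM; 8-point curves from 5 μM.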

SMILES | Percent Gcase Activation, 0.1 μM Test Compound (0.1 μM test compound) | Percent Gcase Activation, 1 μM Test Compound (1 μM test compound) | Percent Gcase Activation, 0.1 μM Test Compound (test compound at 0.1 μM) | Percent Gcase Activation, 1 μM Test Compound (test compound at 1.0 μM) | further results
Cc1cc(-c2ccnnc2)nc2c(C(=O)NC(C3CC3)C(F)(F)F)cnn12 (centres unmarked) [III-325] | * (less than 10% Gcase activation) | + (less than 30% Gcase activation) | – | – | –
Cc1cc(-c2cncc(C(F)(F)F)c2)nc2c(C(=O)N[C@@H](C)C(F)(F)F)cnn12 [III-287] | *** (greater than 20% Gcase activation) | +++ (Gcase activation greater than 60%) | – | – | –
Cc1cc(-c2cccc3ncoc23)nc2c(C(=O)N[C@@H](C)C3CC3)cnn12 [III-217] | – | – | ** (Gcase activation in the range of 10% up to 20%) | +++ (Gcase activation greater than 60%) | –
Cc1cc(N2CCCCC2)n2ncc(C(=O)NC(C)(C)C3CC3)c2n1 [III-22] | – | – | – | – | Percent Gcase Activation, 0.1 μM Test Compound (0.1 μM test compound, Table 3A): * (less than 10% Gcase activation); Percent Gcase Activation, 1 μM Test Compound (1 μM test compound, Table 3A): ++ (Gcase activation in the range of 30% up to 60%)
Cc1oc(C#N)cc1-c1cc(C)n2ncc(C(=O)N[C@@H](C3CC3)C(F)(F)F)c2n1 [III-244] | – | – | *** (greater than 20% Gcase activation) | +++ (Gcase activation greater than 60%) | –
Cc1cc(-c2cccc(Cl)n2)nc2c(C(=O)NC(C)(C)C3CC3)cnn12 [III-62] | – | – | – | – | Percent Gcase Activation, 0.1 μM Test Compound (0.1 μM test compound, Table 3A): *** (greater than 20% Gcase activation); Percent Gcase Activation, 1 μM Test Compound (1 μM test compound, Table 3A): +++ (Gcase activation greater than 60%)
COc1cccc(-c2cc(C)n3ncc(C(=O)NC(C)(C)C(F)(F)F)c3n2)c1 [III-405] | *** (greater than 20% Gcase activation) | +++ (Gcase activation greater than 60%) | – | – | –
Cc1cc(-c2occc2C#N)nc2c(C(=O)NC(C3CC3)C(F)(F)F)cnn12 (centres unmarked) [III-250] | – | – | *** (greater than 20% Gcase activation) | +++ (Gcase activation greater than 60%) | –
Cc1cc(-c2ccc(Cl)nc2)nc2c(C(=O)NC(C3CC3)C(F)(F)F)cnn12 (centres unmarked) [III-116] | – | – | *** (greater than 20% Gcase activation) | +++ (Gcase activation greater than 60%) | –
Cc1ccc(-c2cc(C)n3ncc(C(=O)NC(C4CC4)C(F)(F)F)c3n2)cn1 (centres unmarked) [III-278] | – | – | *** (greater than 20% Gcase activation) | +++ (Gcase activation greater than 60%) | –
COc1c(F)cccc1-c1cc(C)n2ncc(C(=O)NC(C3CC3)C(F)(F)F)c2n1 (centres unmarked) [III-139] | – | – | ** (Gcase activation in the range of 10% up to 20%) | +++ (Gcase activation greater than 60%) | –
Cc1cc(-c2cccnc2)n2ncc(C(=O)N[C@@H](C)C3CC3)c2n1 [III-27] | – | – | – | – | Percent Gcase Activation, 0.1 μM Test Compound (0.1 μM test compound, Table 3A): * (less than 10% Gcase activation); Percent Gcase Activation, 1 μM Test Compound (1 μM test compound, Table 3A): + (less than 30% Gcase activation)
Cc1cc(-c2cnccc2Cl)nc2c(C(=O)NC(C3CC3)C(F)(F)F)cnn12 (centres unmarked) [III-122] | – | – | *** (greater than 20% Gcase activation) | +++ (Gcase activation greater than 60%) | –
Cc1cocc1-c1cc(C)n2ncc(C(=O)N[C@H](C)C(F)(F)F)c2n1 [III-336] | *** (greater than 20% Gcase activation) | +++ (Gcase activation greater than 60%) | – | – | –
Cc1cc(-c2cccnc2)nc2c(C(=O)N[C@@H](C3CC3)C(F)(F)F)cnn12 [III-89] | – | – | ** (Gcase activation in the range of 10% up to 20%) | +++ (Gcase activation greater than 60%) | –
Cc1cc(N2C[C@H](c3ccccc3)OC2=O)nc2c(C(=O)NC(C3CC3)C(F)(F)F)cnn12 (some centres unmarked) [III-314] | *** (greater than 20% Gcase activation) | +++ (Gcase activation greater than 60%) | – | – | –
Cc1cc(-c2cccnc2)nc2c(C(=O)N[C@H](C)C3CC3)cnn12 [III-87] | – | – | * (less than 10% Gcase activation) | + (less than 30% Gcase activation) | –
Cc1cc(-c2ccc3ncn(C)c3c2)nc2c(C(=O)N[C@H](C3CC3)C(F)(F)F)cnn12 [III-305] | *** (greater than 20% Gcase activation) | +++ (Gcase activation greater than 60%) | – | – | –
C#CC(C)(C)NC(=O)c1cnn2c(C)cc(-c3cccc(Cl)n3)nc12 [III-63] | – | – | – | – | Percent Gcase Activation, 0.1 μM Test Compound (0.1 μM test compound, Table 3A): ** (Gcase activation in the range of 10% up to 20%); Percent Gcase Activation, 1 μM Test Compound (1 μM test compound, Table 3A): ++ (Gcase activation in the range of 30% up to 60%)

SMILES | Percent Gcase Activation, 0.1 μM Test Compound (0.1 μM test compound) | Percent Gcase Activation, 1 μM Test Compound (1 μM test compound) | Percent Gcase Activation, 0.1 μM Test Compound (test compound at 0.1 μM) | Percent Gcase Activation, 1 μM Test Compound (test compound at 1.0 μM) | further results
Cc1cc(-c2ccc3scnc3c2)nc2c(C(=O)N[C@@H](C)C3CC3)cnn12 [III-192] | – | – | *** (greater than 20% Gcase activation) | +++ (Gcase activation greater than 60%) | –
Cc1cc(-c2cccc(-n3cccn3)c2)nc2c(C(=O)NC(C3CC3)C(F)(F)F)cnn12 (centres unmarked) [III-415] | *** (greater than 20% Gcase activation) | ++ (Gcase activation in the range of 30% up to 60%) | – | – | –
Cc1cc(-c2ccc(N3CCOCC3)c(F)c2)nc2c(C(=O)NC(C)C(F)(F)F)cnn12 (centres unmarked) [III-299] | *** (greater than 20% Gcase activation) | +++ (Gcase activation greater than 60%) | – | – | –
Cc1cc(-c2ccc3ocnc3c2)nc2c(C(=O)NC(C3CC3)C(F)(F)F)cnn12 (centres unmarked) [III-83] | – | – | – | – | Percent Gcase Activation, 0.1 μM Test Compound (0.1 μM test compound, Table 3A): *** (greater than 20% Gcase activation); Percent Gcase Activation, 1 μM Test Compound (1 μM test compound, Table 3A): +++ (Gcase activation greater than 60%)
Cc1cc(-c2cncc(Cl)c2)nc2c(C(=O)N[C@@H](C3CC3)C(F)(F)F)cnn12 [III-121] | – | – | *** (greater than 20% Gcase activation) | +++ (Gcase activation greater than 60%) | –
Cc1cc(N2CCC(F)(F)C2)nc2c(C(=O)NC(C)C(F)(F)F)cnn12 (centres unmarked) [III-180] | – | – | ** (Gcase activation in the range of 10% up to 20%) | +++ (Gcase activation greater than 60%) | –
Cc1cc(N2CCCCC2)nc2c(C(=O)NC(C)C3CC3)cnn12 (centres unmarked) [III-31] | – | – | – | – | Percent Gcase Activation, 0.1 μM Test Compound (0.1 μM test compound, Table 3A): *** (greater than 20% Gcase activation); Percent Gcase Activation, 1 μM Test Compound (1 μM test compound, Table 3A): +++ (Gcase activation greater than 60%)
CCc1cc(-c2ccccn2)nc2c(C(=O)NC(C)(C)C(F)(F)F)cnn12 [III-407] | * (less than 10% Gcase activation) | + (less than 30% Gcase activation) | – | – | –
COCCOc1ccc(-c2cc(C)n3ncc(C(=O)NC(C)C(F)(F)F)c3n2)cc1F (centres unmarked) [III-298] | *** (greater than 20% Gcase activation) | +++ (Gcase activation greater than 60%) | – | – | –
Cc1cc(-c2nnc(C(C)C)o2)nc2c(C(=O)N[C@H](C3CC3)C(F)(F)F)cnn12 [III-391] | ** (Gcase activation in the range of 10% up to 20%) | +++ (Gcase activation greater than 60%) | – | – | –
Cc1cc(-c2cccc(C(=O)N(C)C)c2)nc2c(C(=O)NC(C3CC3)C(F)(F)F)cnn12 (centres unmarked) [III-413] | * (less than 10% Gcase activation) | +++ (Gcase activation greater than 60%) | – | – | –
Cc1ccc(-c2cc(C)n3ncc(C(=O)N[C@@H](C4CC4)C(F)(F)F)c3n2)cn1 [III-280] | – | – | *** (greater than 20% Gcase activation) | +++ (Gcase activation greater than 60%) | –
Cc1cc(-c2cccnc2)nc2c(C(=O)NC(C3CC3)C(F)(F)F)cnn12 (centres unmarked) [III-35] | – | – | – | – | Percent Gcase Activation, 0.1 μM Test Compound (0.1 μM test compound, Table 3A): ** (Gcase activation in the range of 10% up to 20%); Percent Gcase Activation, 1 μM Test Compound (1 μM test compound, Table 3A): +++ (Gcase activation greater than 60%)
Cc1cc(-c2ccccn2)n2ncc(C(=O)N[C@@H](C)C3CC3)c2n1 [III-25] | – | – | – | – | Percent Gcase Activation, 0.1 μM Test Compound (0.1 μM test compound, Table 3A): * (less than 10% Gcase activation); Percent Gcase Activation, 1 μM Test Compound (1 μM test compound, Table 3A): + (less than 30% Gcase activation)
COc1cncc(-c2cc(C)n3ncc(C(=O)NC(C4CC4)C(F)(F)F)c3n2)c1 (centres unmarked) [III-265] | – | – | *** (greater than 20% Gcase activation) | +++ (Gcase activation greater than 60%) | –
Cc1cc(N2CCCC(F)(F)C2)nc2c(C(=O)NC(C3CC3)C(F)(F)F)cnn12 (centres unmarked) [III-66] | – | – | – | – | Percent Gcase Activation, 0.1 μM Test Compound (0.1 μM test compound, Table 3A): *** (greater than 20% Gcase activation); Percent Gcase Activation, 1 μM Test Compound (1 μM test compound, Table 3A): +++ (Gcase activation greater than 60%)
Cc1cc(-c2ccc(C#N)o2)nc2c(C(=O)NC(C3CC3)C(F)(F)F)cnn12 (centres unmarked) [III-185] | – | – | *** (greater than 20% Gcase activation) | +++ (Gcase activation greater than 60%) | –
Cc1cc(N2CCN(c3ccccc3)C2=O)nc2c(C(=O)N[C@H](C)C(F)(F)F)cnn12 [III-329] | * (less than 10% Gcase activation) | + (less than 30% Gcase activation) | – | – | –
